Source: publication PMC7275090, “Mode of action of teixobactins in cellular membranes” (Nature Communications, 2020)
Bridge positions count the residues as written; N and C are the ends. Square brackets hold non-standard residues; d marks the D form. Ends that are not written are not given here. d(aIle) = CC[C@H](C)[C@@H](N)C(=O)O; dNMeF = CN[C@H](Cc1ccccc1)C(=O)O

Legend:
[1] = vancomycin, unlike teixobactins; cited from earlier work
From the text: In summary, a picture of a balanced binding mode emerges in which teixobactins use the conserved pyrophosphate as firm, specific anchor, whereas the interaction with the sugar-pentapeptide headgroup is more loosely defined[28],[29]. This behaviour enables teixobactins to recognize different cognate cell-wall building blocks and wall teichoic acids precursors, such as Lipid I, Lipid II, Lipid III, and undecaprenyl pyrophosphate that all have the PPi moiety in common but feature different headgroups. The capacity to recognize several conserved precursor molecules both maximizes the number of ...

[2] = ssNMR 15N T1rho relaxation (dynamics of bound teixobactin), Lys-Lipid II; details: [L10] analogue, 60 kHz MAS
Description: Relaxation studies: ^1H-detected ^15N T1rho relaxation experiments were carried out at 950 and 700 MHz magnetic field, respectively, using 60 kHz MAS[51]. The ^15N transverse magnetization decay was probed with a ^15N spinlock field of 17.5 kHz. For the bulk, we measured the intensity of the most intense signal at ~8.80 ^1H ppm. T1rho trajectories were fit to single exponentials.
Lipid I or II-doped multi-laminar vesicle preparations: DOPC or DOPG lipids were mixed with Lipid I or II in 1:1 MeOH:CHCl3 at the final Lipid I or II molar ratio (0–4 mol%/mol). The mixtures were dried and the lipid films were hydrated by vortexing with 2 mL of a teixobactin solution in 40 mM phosphate, 25 mM NaCl, pH 7.0.
(§1) SSNMR samples: MLVs were collected by centrifugation (20,000×g) and loaded into ssNMR rotors. For 3.2 mm rotors, we used 800 nmol of antibiotic with unlabelled Lipid II or I, while we used 400 nmol with labelled Lipid II. For 1.3 mm rotors, samples contained 200 nmol of antibiotic for unlabelled Lipid II or I, while we used 100 nmol for labelled Lipid II. For all ssNMR samples, we used 4 mol%/mol Lipid II or I in the MLVs.

[3] = Fluorescence microscopy of GUVs doped with NBD-labelled Lipid II (Lipid II clustering); details: DOPC GUVs, 1 μM peptide, 4 h
Description: GUVs were prepared using the electroformation method. The GUV cell is a self-assembled system which consists of a 5 mm-thick Teflon plate which is aligned with two titanium electrodes in a closed Teflon chamber. 1.5 μL of 0.5 mM DOPC doped with NBD-labelled Lipid II (0.1 mol%) were brushed on the electrodes. Next, the chamber was filled with 350 μL 0.1 M sucrose solution; the electrodes dipped in and then connected to a power supply which generated a sine wave of voltage 2.5 V at a frequency of 10 Hz for 90 min. Each microscopy slide (μ-slide 8 well, Ibidi) was covered with 350 μL BSA solution (1 mg/mL). To detach the GUVs from the electrodes the power supply was changed to square wave of voltage 2 V at a frequency of 2 Hz for 15 min. The slides were immersed in 300 μL 0.1 mM glucose solution to which 80 μL of GUVs were added. These were incubated for 4 h with 1 μM [R4L10]-teixobactin and observed by confocal microscopy. Anionic GUVs were prepared using a homemade electroformation setup with ITO coverslips (18 × 18 mm, 15–30 Ω, SPI supplies). On both slips, 3 μL of a chloroform–methanol (1:1, vol/vol) solution containing 1 mM of a 3:1 mixture of DOPC:DOPG (mol/mol) and 0.1 mol% NBD-labelled Lipid II was deposited and dried in a vacuum desiccator. With these slips, the electroformation chamber was assembled and filled with 0.1 M sucrose solution. The GUV cell was connected to the power supply and an alternating current applied (1 V, 10 Hz). GUV formation was carried out overnight.
Microscopy: GUVs were imaged using Zeiss LSM 880 with ×63/1.2NA glycerol objective lens. The NBD label appeared green upon excitation by the 488 nm laser. The emission range for detection was 530–545 nm (λem peak = 539 nm). The brightfield images were used for detection and location of the GUVs without a fluorescent signal and also as a control to observe their shape.

[4] = ssNMR signal intensity of Lipid II-bound teixobactin, DOPC vs DOPG liposomes
From the text: as §1
H/ppm H/ppm N spinlock duration (ms)
Weaker binding affinity to Lipid II in anionic conditions is a common property of the binding mode of teixobactins.
To validate and generalise our findings, we repeated ssNMR studies with a second analogue, [L10]-teixobactin, which is close to natural teixobactin. Both [L10]- teixobactin and [R4L10]-teixobactin show similar behaviour in anionic membranes, i.e., sharp drops in ssNMR sensitivity and marked increase in mobility in the complex. We note that only the difference between natural teixobactin and [Leu10]- teixobactin is the substitution of enduracididine10 by leucine10. We also note that the substitution by enduracididine10 by cationic or hydrophobic residues is tolerated […]
a) 1H-detected 1D NH spectra of Lipid II-bound [Leu10]-teixobactin measured in DOPC (cyan) and DOPG (red) liposomes. The signal-to-noise ratio is more than six times lower in anionic membranes. Both spectra were acquired with fully packed 1.3 mm rotors and 10240 scans each. b)15N T1rho signal decay curves of the bulk signal of Lipid II-bound [Leu10]- teixobactin in DOPC (cyan) and (DOPG (red) membranes. Relaxation is much faster […]
c) Corresponding 15N R1rho rates of Lipid II-bound [Leu10]-teixobactin in DOPC (cyan) and DOPG (red) membranes. The error bars show the standard error of the fit. Source data are provided as a Source Data file.
The spectra were acquired at 700 MHz with 60 kHz magic angle spinning (MAS).

[5] = target: the molecule itself; assay: solid-state NMR; 2D 13C13C PARISxy spectra with long magnetization transfer times (50-1000 ms), distance threshold ~8 Å; 13C,15N-labelled [R4L10]-teixobactin bound to unlabelled Lipid II (4 mol%) in DOPC membranes; 950 MHz, 15.5 kHz MAS, 270 K

For vancomycin, the “ability to bind Lipid II versions with different pentapeptides” value [1] is given as “unlike vancomycin”.

In the case of Leu10-teixobactin [[L10]-teixobactin], the “Bulk 15N R1rho” value ([2]; Lys-LII in DOPC (Lys-LII PC)) is reported as 5.29 s⁻¹, the “Bulk 15N T1rho” value ([2]; Lys-LII in DOPC (Lys-LII PC)) is reported as 189.00 ms and the “Bulk 15N R1rho” value ([2]; Lys-LII in DOPG (Lys-LII PG)) is reported as 18.49 s⁻¹. The “Bulk 15N T1rho” value ([2]; Lys-LII in DOPG (Lys-LII PG)) was 54.07 ms, the “Lipid II segregation into clusters on GUVs” value ([3]; 0.1 mol% NBD-Lipid II) was “segregation of Lipid II into clusters” and the “vesicle integrity and morphology after incubation” value ([3]; brightfield images, cluster sites show slight membrane deformations) was “morphology is maintained”. For the same molecule, the “signal-to-noise ratio, times lower in anionic membranes” value ([4]; DOPG vs DOPC, 1H-detected 1D NH spectra, 10240 scans each) was “more than six”, the “relative 1D NH signal, DOPC” value ([4]; Supplementary Figure 11a, DOPC (reference)) was 100% and the “relative 1D NH signal, DOPG” value ([4]; Supplementary Figure 11a, DOPG relative to DOPC) was 15%.

B1: [R4L10]-teixobactin (peptide)
peptide: [dNMeF]IS[dR][d(aIle)]IS[dT]ALI
modifications: ester 8-C; also: 13C,15N-labelled at Ile2, Ser3, Ile6, Ser7, Ala9, Leu10
notes: Analogue of teixobactin, a natural undecapeptide from Eleftheria terrae; Cyclic depsipeptide with non-proteinogenic and D-residues; also called D-Arg4-Leu10-teixobactin; source: synthetic peptide (solid-phase synthesis, cyclised, purified by RP-HPLC)
B1: binds [5].
